Experimental data reported in US20180289605A1, “NON-AQUEOUS COMPOSITION FOR HAIR FRIZZ REDUCTION” (The Procter & Gamble Company, priority 2017, published 2018).

How the values were obtained:
[1] = Dynamic Vapor Sorption (DVS) % water reduction of treated hair
Procedure: The % water reduction is calculated as follows:
% Water reduction=[(B−A)×100]/B

[2] = Additional evaluations: expert rating of hair switches for frizz, clean feel and greasy feel; conditions: non-aqueous compositions, Tables 9 and 10
Procedure: […] The switch is kept at high humidity (above 85%) for 2 hours. Then, ten experts are asked to rate each hair switch in terms of frizz, clean feel, and greasy feel, based on a 5 point scale, 5 being the highest and 1 being the lowest rating.
Additional non-aqueous leave-on treatment compositions are prepared (Tables 9 and 10) according to the procedure described above, which are used to treat hair switches using the procedure described above (amount of 0.10 g of composition per g of hair). The switch is kept at high humidity (above 85%) for 2 hours. Then, ten experts are asked to rate each hair switch in terms of frizz, clean feel and greasy feel, based on a 5 point scale, 5 being the highest and 1 being the lowest rating.

[3] = Class II materials, hair 0% RH versus 90% RH, versus control hair
[4] = Class I materials, 1% wt/vol, hair 0% RH versus 90% RH, versus control hair

Molecule	% Water reduction [1, 3]	Results of hair switch rating in words (frizz protection, clean feel, greasy feel) [2]	other results
O=C(OCCO)c1ccccc1O [2-Hydroxyethyl salicylate]	10%	provide frizz protection with clean feel and without greasy feel negative	–
CC(C)CCCCCCCCCCCCCCCOC(=O)CCCCCCCCCCCCCCC(C)C [Isostearyl isostearate]	11%	provide frizz protection with clean feel and without greasy feel negative	–
COc1cc(/C=C/C(=O)O)ccc1O [Trans-Ferulic Acid]	–	–	% Water reduction [1, 4]: 6%
CCOC(=O)c1cc(O)c(O)c(O)c1 [Ethyl gallate]	17%	–	–
O=S(=O)(O)c1ccc(O)cc1 [4-Hydroxybenzenesulphonic acid]	–	provide fizz protection with clean feel and without greasy feel negative	–
CCCCCCCC/C=C\CCCCCCCC(=O)OCC(O)CO (stereo not shown) [Glyceryl monooleate]	5%	–	–
Nc1ccc(O)cc1 [4-Aminophenol]	–	–	% Water reduction [1, 4]: 10%
O=C(O)c1cccc(O)c1 [3-Hydroxybenzoic Acid]	–	–	% Water reduction [1, 4]: 20%
O=C(O)c1ccc(O)c(O)c1 [3,4-Dihydroxybenzoic acid]	–	–	% Water reduction [1, 4]: 20%
CCCCCCCCCCCCCC(=O)OC(C)C [Isopropyl myristate]	12%	–	–
O=C(O)c1ccc(O)cc1O [2,4-Dihydroxybenzoic acid]	–	provide fizz protection with clean feel and without greasy feel negative	% Water reduction [1, 4]: 30%
Sorbitan caprylate	11%	–	–
CCCCCCCC/C=C\CCCCCCCC(=O)O [Oleic Acid]	14%	–	–
CCCCCCCCC(CO)CCCCCC (stereo not shown) [2-Hexyl-1-decanol]	11%	provide frizz protection with clean feel and without greasy feel negative	–
O=C(O)c1ccccc1O [Salicylic acid]	–	provide fizz protection with clean feel and without greasy feel negative	% Water reduction ([1]; Table 6, 1% salicylic acid in ethanol:water (50:50), final pH 3.2 (column pH 3)): 30%; % Water reduction ([1]; Table 6, 1% salicylic acid in ethanol:water (50:50), final pH 4.2): 27%; % Water reduction ([1]; Table 6, 1% salicylic acid in ethanol:water (50:50), final pH 7): 22%; % Water reduction ([1]; Table 6, 1% salicylic acid in ethanol:water (50:50), final pH 10): 15%
CCCCC/C=C\C/C=C\CCCCCCCC(=O)OCC [Ethyl linoleate]	8%	–	–
CCCCCC[C@@H](O)C/C=C\CCCCCCCC(=O)O [Ricinoleic acid]	8.8%	–	–
CC(C)C(=O)O [Isobutyric acid]	5%	–	–
O=C(O)c1cc(Cl)ccc1O [5-Chlorosalicylic acid]	–	provide fizz protection with clean feel and without greasy feel negative	–
C/C(=C\CO)CCC[C@H](C)CCC[C@H](C)CCCC(C)C [Phytol]	14%	–	–
